What was measured:
[1] = system: plasmas riches en plaquettes provenant de sang de rat; assay: Platelet anti-aggregation in vitro, ADP-induced (Born aggregometer); format: cell-based; conditions: in vitro, aggregating agent ADP, rat platelet-rich plasma, 37°; M not defined in the text; mM printed only in the TICLOPIDINE line
Description: Les études ont été réalisées sur des plasmas riches en plaquettes provenant de sang de rat, l'agrégation étant induite par addition d'acide Adénosine diphosphorique. Les courbes néphélométriques d'agrégation sont obtenues en utilisant un agrégomètre de type BORN, le plasma étant placé en incubation à 37° avec agitation continue de 1100 t/mn (cf. BORN G.V.R et CROSS J. - J. Physiol. 168 (1962) 178.

[2] = target: T1, COTRANSPORT Na-K (Homo sapiens, UniProt P55011); assay: Na-K cotransport of human erythrocytes; format: cell-based, ERYTHROCYTES HUMAINS; conditions: human erythrocytes
T1 construct: systèmes de transport du sodium et du potassium des érythrocytes humains; endogenous in cells; host or cells: human erythrocytes
T1 sequence (P55011 1-1212): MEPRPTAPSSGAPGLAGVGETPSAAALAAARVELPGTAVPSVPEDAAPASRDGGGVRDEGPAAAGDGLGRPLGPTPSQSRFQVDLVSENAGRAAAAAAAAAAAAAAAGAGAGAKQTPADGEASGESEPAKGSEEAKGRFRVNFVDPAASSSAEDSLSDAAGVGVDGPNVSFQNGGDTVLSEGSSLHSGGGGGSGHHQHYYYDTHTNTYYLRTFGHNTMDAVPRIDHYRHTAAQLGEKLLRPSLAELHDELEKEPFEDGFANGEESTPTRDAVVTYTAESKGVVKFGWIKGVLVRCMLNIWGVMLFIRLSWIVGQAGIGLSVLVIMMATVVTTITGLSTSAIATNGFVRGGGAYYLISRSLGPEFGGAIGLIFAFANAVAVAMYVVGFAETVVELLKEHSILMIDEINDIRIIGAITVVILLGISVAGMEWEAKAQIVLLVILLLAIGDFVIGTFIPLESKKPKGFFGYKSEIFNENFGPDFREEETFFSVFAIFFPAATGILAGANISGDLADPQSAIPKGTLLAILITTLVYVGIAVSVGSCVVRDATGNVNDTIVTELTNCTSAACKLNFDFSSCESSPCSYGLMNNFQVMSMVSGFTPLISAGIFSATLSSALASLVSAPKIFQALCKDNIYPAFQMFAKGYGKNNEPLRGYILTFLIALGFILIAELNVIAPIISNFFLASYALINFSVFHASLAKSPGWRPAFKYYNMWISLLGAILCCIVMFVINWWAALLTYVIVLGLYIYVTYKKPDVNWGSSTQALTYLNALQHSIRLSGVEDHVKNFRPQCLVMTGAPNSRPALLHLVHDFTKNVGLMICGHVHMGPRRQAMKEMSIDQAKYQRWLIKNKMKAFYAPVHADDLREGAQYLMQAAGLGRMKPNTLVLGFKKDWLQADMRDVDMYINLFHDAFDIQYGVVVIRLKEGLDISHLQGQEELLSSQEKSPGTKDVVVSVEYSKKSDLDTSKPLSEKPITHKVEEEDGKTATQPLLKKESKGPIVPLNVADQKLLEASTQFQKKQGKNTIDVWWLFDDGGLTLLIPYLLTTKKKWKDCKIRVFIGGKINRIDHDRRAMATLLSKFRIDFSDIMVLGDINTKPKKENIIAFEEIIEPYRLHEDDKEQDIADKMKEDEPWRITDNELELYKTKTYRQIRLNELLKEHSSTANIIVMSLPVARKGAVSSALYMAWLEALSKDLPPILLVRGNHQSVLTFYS
Text: Cet effet a été étudié selon la méthodologie décrite par G. GARAY et coll. dans Naunyn-Schmidberg's Arch. Pharmakol. […] Pharm.

[3] = system: SOURIS; assay: Diuretic activity in the mouse (hourly urine volume, sodium and potassium assay); format: in vivo; conditions: S = SOURIS, PO, at the dose (minimal active dose)
Text: (§1) d'urine sont déterminés toutes les heures. Le dosage de sodium et du potassium est effectué par spectrophotométrie.

[4] = system: RAT; assay: Diuretic activity in the rat (hourly urine volume, sodium and potassium assay); format: in vivo; conditions: po; R = RAT; diuretic activity; read-out: Dose minimale active
Text: as §1

[5] = target: T2, ECHANGEUR D'ANIONS (Homo sapiens, UniProt P02730); assay: Anion exchanger of human erythrocytes; format: cell-based, ERYTHROCYTES HUMAINS
T2 construct: systèmes de transport du sodium et du potassium des érythrocytes humains; endogenous in cells; host or cells: human erythrocytes
T2 sequence (P02730 1-911): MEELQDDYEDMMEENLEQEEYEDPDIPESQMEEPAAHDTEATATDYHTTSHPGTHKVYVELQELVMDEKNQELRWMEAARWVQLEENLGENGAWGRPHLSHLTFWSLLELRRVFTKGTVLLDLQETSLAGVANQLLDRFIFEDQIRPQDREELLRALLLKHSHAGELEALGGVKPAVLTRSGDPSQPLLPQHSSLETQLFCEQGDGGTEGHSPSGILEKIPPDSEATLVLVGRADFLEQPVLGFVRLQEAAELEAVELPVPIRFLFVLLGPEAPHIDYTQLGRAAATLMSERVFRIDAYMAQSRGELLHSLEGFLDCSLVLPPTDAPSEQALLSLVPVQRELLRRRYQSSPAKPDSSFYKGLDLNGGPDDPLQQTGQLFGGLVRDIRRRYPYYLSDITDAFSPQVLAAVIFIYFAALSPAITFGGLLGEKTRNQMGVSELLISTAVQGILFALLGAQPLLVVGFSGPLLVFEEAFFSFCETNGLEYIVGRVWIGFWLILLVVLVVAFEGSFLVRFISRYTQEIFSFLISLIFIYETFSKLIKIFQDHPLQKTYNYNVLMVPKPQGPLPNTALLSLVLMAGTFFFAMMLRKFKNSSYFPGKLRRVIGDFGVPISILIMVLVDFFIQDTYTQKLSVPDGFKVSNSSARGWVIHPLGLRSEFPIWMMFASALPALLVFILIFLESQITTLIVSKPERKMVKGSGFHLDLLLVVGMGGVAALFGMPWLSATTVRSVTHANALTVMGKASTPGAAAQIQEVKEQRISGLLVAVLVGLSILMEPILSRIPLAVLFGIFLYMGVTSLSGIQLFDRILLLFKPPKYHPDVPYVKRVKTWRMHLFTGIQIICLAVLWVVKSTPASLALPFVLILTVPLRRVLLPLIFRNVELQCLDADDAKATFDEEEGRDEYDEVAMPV
Text: Cet effet a été étudié selon la méthodologie décrite par G. GARAY et coll. dans Naunyn-Schmidberg's Arch. Pharmakol. 334 (1986) 202-209 et dans Bioch. Pharm. 33 (1984) 2013-2020.

[6] = target: T3, lipoxygénase de soja (Glycine max, UniProt P08170); assay: Anti-lipoxygenase action on soybean lipoxygenase; format: biochemical
T3 sequence (P08170 1-839): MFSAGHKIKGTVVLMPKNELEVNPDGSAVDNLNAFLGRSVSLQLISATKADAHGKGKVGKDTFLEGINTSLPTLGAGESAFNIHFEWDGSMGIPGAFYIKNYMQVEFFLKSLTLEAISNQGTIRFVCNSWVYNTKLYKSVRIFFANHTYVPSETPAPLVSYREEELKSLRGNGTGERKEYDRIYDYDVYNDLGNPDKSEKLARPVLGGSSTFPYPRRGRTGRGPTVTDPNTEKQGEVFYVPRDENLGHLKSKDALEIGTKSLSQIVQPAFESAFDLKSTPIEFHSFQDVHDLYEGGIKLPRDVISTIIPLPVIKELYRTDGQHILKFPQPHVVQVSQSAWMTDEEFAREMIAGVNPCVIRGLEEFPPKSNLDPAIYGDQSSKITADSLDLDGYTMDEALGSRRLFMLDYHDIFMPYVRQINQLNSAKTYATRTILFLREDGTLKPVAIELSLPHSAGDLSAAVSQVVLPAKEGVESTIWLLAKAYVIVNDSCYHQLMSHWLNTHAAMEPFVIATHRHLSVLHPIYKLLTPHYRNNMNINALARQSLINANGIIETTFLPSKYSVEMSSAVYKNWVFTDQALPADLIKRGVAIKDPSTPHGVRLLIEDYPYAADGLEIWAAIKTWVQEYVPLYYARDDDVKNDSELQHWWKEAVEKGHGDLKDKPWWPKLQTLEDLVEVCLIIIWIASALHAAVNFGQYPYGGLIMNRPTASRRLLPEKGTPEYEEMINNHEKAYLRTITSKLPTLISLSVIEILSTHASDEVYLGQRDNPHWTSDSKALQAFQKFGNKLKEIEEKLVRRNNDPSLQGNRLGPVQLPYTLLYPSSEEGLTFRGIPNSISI
Text: L'action anti-lipoxygénase a été étudiée sur la lipoxygénase de soja selon la méthode décrite par W.L SMITH et W.E LANDS (J. Biol. Chem. 247 (1972) 1038-1047)

EFFET SUR LE COTRANSPORT Na-K IC 50 [2]: Non actif
EFFET SUR L'ECHANGEUR D'ANIONS IC 50 [5]: Non actif
ACTIVITE ANTI-LIPOXYGENASE IC 50 [6]: Inactif
SMILES: COc1cccc(CCOc2ccc(F)cc2)c1 [ex 169]
M à 50 [1]: inactif
Pouvoir diurétique en % [3]: Inactif
Rapport Na/K en % [3]: Inactif
minimal effective dose [4]: 12 mg/kg

— EP0428423A2, “Aryloxy alkyl benzenes, processes for their preparation and pharmaceutical compositions containing them” (LIPHA S.A., priority 1989, dated 1991)
